In data set [1] the target is T1, PD-L1/PD-1 complex formation (Homo sapiens, UniProt Q9NZQ7).
T1 construct: purchased BPS Bioscience
Nature of the data set: PD-L1/PD-1 Interaction Assay (ELISA platform). The conditions noted are these: human PD-1-Fc coated plates, PD-L1-Fc-biotin 0.1 μg/ml, compounds pre-incubated 2 hours. The format is binding. The method, then:
The ability of compounds to block PD-L1/PD-1 complex formation was evaluated using biochemical interaction assay based on the ELISA platform.
EIA/RIA high binding 96-well plates (Costar) were coated with human PD-1-Fc protein diluted in PBS to 0.5 μg/ml overnight at 4° C. The PD-1-Fc coated plates were washed in PBST and blocked in blocking buffer (2% BSA in PBST). Serially diluted compounds were pre-incubated with PD-L1-Fc-biotin (0.1 μg/ml final) for 2 hours on a shaker at room temperature. The PD-1-Fc coated plates were washed with PBST and solutions containing PD-L1 and compounds were added to the plates. The PD-1-Fc coated plates were incubated with PD-L1 and compound solution for 2 hours on a shaker at room temperature. After the incubation unbound PD-L1 was washed away with PBST and plates were incubated with the blocking buffer for 10 minutes. The bound PD-L1-Fc-biotin was detected with streptavidin-HRP and TMB substrate. The plates were read at OD450 nm in a plate reader (i3 from Molecular Devices) and percentages of inhibition of PD-L1/PD-1 complex formation were calculated.
PD-1-Fc protein was made at Polaris and PD-L1-Fc was purchased from BPS Bioscience.

T1 sequence (Q9NZQ7 19-239 limits assumed, one chain of several): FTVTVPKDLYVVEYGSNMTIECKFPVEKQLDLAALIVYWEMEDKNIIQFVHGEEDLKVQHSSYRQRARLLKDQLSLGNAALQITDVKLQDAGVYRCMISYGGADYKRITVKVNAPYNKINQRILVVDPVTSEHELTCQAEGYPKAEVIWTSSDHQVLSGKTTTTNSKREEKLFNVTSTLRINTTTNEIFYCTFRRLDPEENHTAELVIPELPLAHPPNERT

With `Cc1c(COc2ccc(CN3CCCC[C@H]3C(=O)O)cc2F)cccc1-c1cccc(COc2ccc(CN3CCCC[C@H]3C(=O)O)cc2F)c1C` [Example 19, (2S,2′S)-1,1′-(((((2,2′-Dimethyl-[1,1′-biphenyl]-3,3′-diyl)bis(methylene))bis(oxy))bis(3-fluoro-4,1-phenylene))bis(methylene))bis(piperidine-2-carboxylic acid)], the melting point is 205 to 209 °C. The IC50 in data set [1] was 0.11 to 1 µM.

For the compound `Cc1cc(CN2CCCC[C@H]2C(=O)O)ccc1OCc1cccc(-c2cccc(COc3ccc(CN4CCCC[C@H]4C(=O)O)cc3C)c2C)c1C` [Example 11, (2S,2′S)-1,1′-(((((2,2′-Dimethyl-[1,1′-biphenyl]-3,3′-diyl)bis(methylene))bis(oxy))bis(3-methyl-4,1-phenylene))bis(methylene))bis(piperidine-2-carboxylic acid)], the melting point lay in the range of 191 to 195 °C. In data set [1], this compound returned an IC50 of 0.011 to 0.1 µM.

Turning to `Cc1c(COc2ccc(CN3CCCC[C@H]3C(=O)O)cc2Br)cccc1-c1cccc(COc2ccc(CN3CCCC[C@H]3C(=O)O)cc2Br)c1C` [Example 1, (2S,2′S)-1,1′-(((((2,2′-dimethyl-[1,1′-biphenyl]-3,3′-diyl)bis(methylene))bis(oxy))bis(3-bromo-4,1-phenylene))bis(methylene))bis(piperidine-2-carboxylic acid)], the melting point was in the range of 222 to 226 °C. Further, in data set [1], the IC50 was in the range of 0.0001 to 0.01 µM.

`Cc1c(COc2ccc(CN3CCCC[C@H]3C(=O)O)cc2C(F)(F)F)cccc1-c1cccc(COc2ccc(CN3CCCC[C@H]3C(=O)O)cc2C(F)(F)F)c1C` [Example 13, (2S,2′S)-1,1′-(((((2,2′-Dimethyl-[1,1′-biphenyl]-3,3′-diyl)bis(methylene))bis(oxy))bis(3-(trifluoromethyl)-4,1-phenylene))bis(methylene))bis(piperidine-2-carboxylic acid)] returned a melting point of 287 to 291 °C. The same compound yielded an IC50 in data set [1] of 0.0001 to 0.01 µM.

For the compound `O=C(O)[C@@H]1CCCCN1Cc1ccc(OCc2cccc(-c3cccc(COc4ccc(CN5CCCC[C@H]5C(=O)O)cc4Br)c3)c2)c(Br)c1` [Example 8, (2S,2′S)-1,1′-(((([1,1′-Biphenyl]-3,3′-diylbis(methylene))bis(oxy))bis(3-bromo-4,1-phenylene))bis(methylene))bis(piperidine-2-carboxylic acid)], the melting point lay in the range of 306 to 310 °C. The compound further had an IC50 in data set [1] of 1.01 to 30 µM.

`Cc1c(COc2ccc(CN3CCCC[C@H]3C(=O)O)cc2O)cccc1-c1cccc(COc2ccc(CN3CCCC[C@H]3C(=O)O)cc2O)c1C` [Example 21, (2S,2′S)-1,1′-(((((2,2′-Dimethyl-[1,1′-biphenyl]-3,3′-diyl)bis(methylene))bis(oxy))bis(3-hydroxy-4,1-phenylene))bis(methylene))bis(piperidine-2-carboxylic acid)]: the melting point fell in the range of 143 to 147 °C. Also, the IC50 in data set [1] lay in the range of 1.01 to 30 µM.

`CC(=O)NCCNCc1ccc(OCc2cccc(-c3cccc(COc4ccc(CNCCNC(C)=O)cc4Br)c3C)c2C)c(Br)c1` [Example 6, N,N′-(((((((2,2′-Dimethyl-[1,1′-biphenyl]-3,3′-diyl)bis(methylene))bis(oxy))bis(3-bromo-4,1-phenylene))bis(methylene))bis(azanediyl))bis(ethane-2,1-diyl))diacetamide] gave a melting point of 95 to 99 °C. Besides, the IC50 in data set [1] was in the range of 0.011 to 0.1 µM.

The compound `Cc1c(COc2ccc(CN3CCCC[C@H]3C(=O)O)cc2Cl)cccc1-c1cccc(COc2ccc(CN3CCCC[C@H]3C(=O)O)cc2Cl)c1C` [Example 12, (2S,2′S)-1,1′-(((((2,2′-Dimethyl-[1,1′-biphenyl]-3,3′-diyl)bis(methylene))bis(oxy))bis(3-chloro-4,1-phenylene))bis(methylene))bis(piperidine-2-carboxylic acid)] returned a melting point of 184 to 188 °C. In data set [1], the IC50 fell in the range of 0.011 to 0.1 µM.

In the case of `COc1cc(OCc2cccc(-c3cccc(COc4cc(OC)c(CNCCO)c(OC)c4)c3C)c2C)cc(OC)c1CNCCO` [Example 22, 2,2′-((((((2,2′-Dimethyl-[1,1′-biphenyl]-3,3′-diyl)bis(methylene))bis(oxy))bis(2,6-dimethoxy-4,1-phenylene))bis(methylene))bis(azanediyl))bis(ethan-1-ol)], the melting point lay in the range of 86 to 90 °C. In data set [1], the IC50 lay in the range of 0.011 to 0.1 µM.

`O=C(O)[C@@H]1CCCCN1Cc1ccc(OCc2cccc(-c3cccc(COc4ccc(CN5CCCC[C@H]5C(=O)O)cc4Br)c3F)c2F)c(Br)c1` [Example 10, (2S,2′S)-1,1′-(((((2,2′-Difluoro-[1,1′-biphenyl]-3,3′-diyl)bis(methylene))bis(oxy))bis(3-bromo-4,1-phenylene))bis(methylene))bis(piperidine-2-carboxylic acid)] had a melting point of 204 to 208 °C. Moreover, the IC50 in data set [1] was in the range of 0.11 to 1 µM.

For the compound `O=C(O)[C@@H]1CCCCN1Cc1ccc(OCc2cccc(-c3cccc(COc4ccc(CN5CCCC[C@H]5C(=O)O)cc4Br)c3Cl)c2Cl)c(Br)c1` [Example 9, (2S,2′S)-1,1′-(((((2,2′-Dichloro-[1,1′-biphenyl]-3,3′-diyl)bis(methylene))bis(oxy))bis(3-bromo-4,1-phenylene))bis(methylene))bis(piperidine-2-carboxylic acid)], the melting point is 184 to 188 °C. Further, the IC50 in data set [1] was in the range of 0.0001 to 0.01 µM.

What is called melting point is the temperature of the solid-liquid transition. What is called IC50 is the concentration at which inhibition is half-maximal. The low end stands for greater potency in that assay, the high end for weaker potency in that assay.

(Values after patent US20180065917A1, “IMMUNE CHECKPOINT INHIBITORS, COMPOSITIONS AND METHODS THEREOF” (Polaris Pharmaceuticals, Inc., priority 2016, published 2018).)
